Measured values reported in patent US11753404B2, “Aminothiazole compounds as c-Kit inhibitors” (Ariad Pharmaceuticals, Inc., priority 2016, dated 2023).

Experiments:
[1] = target: T1, BAF3 FL KIT EX11DEL/T670I (Homo sapiens, UniProt P10721, T670I, cells depend on it, form not given); assay: c-Kit assay: Ba/F3 KIT mutant cell viability (Cell Titer-Glo, 72 hours); format: cell-based; conditions: viability after 72 hours
T1 construct: BAF3 FL KIT EX11DEL/T670I
Experimental: (§1) Generation of DBa/F3 KIT Mutant Engineered Cell Lines
(§2) KIT cDNAs were synthesized by GenScript and cloned into the pLVX-IRES-Puro vector (Clontech). Viral particles were produced by transfecting pLVX-IRES-puro vectors containing KIT mutant genes into HEK293 cells (Invitrogen) using the Trans-Lentiviral ORF Packaging Kit (Thermo Scientific). 48 hours post-transfection, virus-containing supernatants were harvested and incubated for another 48-72 hours with parental Ba/F3 cells (DSMZ) in the presence of 10 ng/mL IL-3 (R&D Systems). Transduced Ba/F3 cells were then selected by IL-3 withdrawal and puromycin (0.5-1 μg/mL, Invitrogen).
(§3) Cell lines (e.g., EX11DEL, EX11DEL/D816H, EX11DEL/T670I, and EX11DEL/V654A) were plated into 384 well plates using RPMI 1640 supplemented with 10% FBS at densities that produced linear growth and incubated at 37° C. in 5% (v/v) CO2. Cells were treated with eight concentrations of compound over a 4-fold dilution (10 μM to 0.61 nM) and viability was assessed using Cell Titer-Glo assay (Promega) after 72 hours. Data were plotted as percent viability relative to vehicle-treated cells. Dose-responses curves were generated and used to calculate IC50 values.

BAF3 FL KIT EX11DEL = target: T2, BAF3 FL KIT EX11DEL (Homo sapiens, UniProt P10721, cells depend on it, form not given); assay: as above; format: cell-based; conditions: viability after 72 hours
T2 construct: BAF3 FL KIT EX11DEL
Experimental: as §1, §2, §3

[2] = target: T3, BAF3 FL KIT EX11DEL/D816H (Homo sapiens, UniProt P10721, D816H, cells depend on it, form not given); assay: as above; format: cell-based; conditions: viability after 72 hours
T3 construct: BAF3 FL KIT EX11DEL/D816H
Experimental: as §1, §2, §3

[3] = target: T4, BAF3 FL KIT EX11DEL/V654A (Homo sapiens, UniProt P10721, V654A, cells depend on it, form not given); assay: as above; format: cell-based; conditions: viability after 72 hours
T4 construct: BAF3 FL KIT EX11DEL/V654A
Experimental: as §1, §2, §3

[4] = test system: gastrointestinal stromal tumors (GIST); conditions: third line therapy; cited from earlier work

T3 sequence (P10721 with tags, fused parts or gaps DEL557-558/D816H, form open): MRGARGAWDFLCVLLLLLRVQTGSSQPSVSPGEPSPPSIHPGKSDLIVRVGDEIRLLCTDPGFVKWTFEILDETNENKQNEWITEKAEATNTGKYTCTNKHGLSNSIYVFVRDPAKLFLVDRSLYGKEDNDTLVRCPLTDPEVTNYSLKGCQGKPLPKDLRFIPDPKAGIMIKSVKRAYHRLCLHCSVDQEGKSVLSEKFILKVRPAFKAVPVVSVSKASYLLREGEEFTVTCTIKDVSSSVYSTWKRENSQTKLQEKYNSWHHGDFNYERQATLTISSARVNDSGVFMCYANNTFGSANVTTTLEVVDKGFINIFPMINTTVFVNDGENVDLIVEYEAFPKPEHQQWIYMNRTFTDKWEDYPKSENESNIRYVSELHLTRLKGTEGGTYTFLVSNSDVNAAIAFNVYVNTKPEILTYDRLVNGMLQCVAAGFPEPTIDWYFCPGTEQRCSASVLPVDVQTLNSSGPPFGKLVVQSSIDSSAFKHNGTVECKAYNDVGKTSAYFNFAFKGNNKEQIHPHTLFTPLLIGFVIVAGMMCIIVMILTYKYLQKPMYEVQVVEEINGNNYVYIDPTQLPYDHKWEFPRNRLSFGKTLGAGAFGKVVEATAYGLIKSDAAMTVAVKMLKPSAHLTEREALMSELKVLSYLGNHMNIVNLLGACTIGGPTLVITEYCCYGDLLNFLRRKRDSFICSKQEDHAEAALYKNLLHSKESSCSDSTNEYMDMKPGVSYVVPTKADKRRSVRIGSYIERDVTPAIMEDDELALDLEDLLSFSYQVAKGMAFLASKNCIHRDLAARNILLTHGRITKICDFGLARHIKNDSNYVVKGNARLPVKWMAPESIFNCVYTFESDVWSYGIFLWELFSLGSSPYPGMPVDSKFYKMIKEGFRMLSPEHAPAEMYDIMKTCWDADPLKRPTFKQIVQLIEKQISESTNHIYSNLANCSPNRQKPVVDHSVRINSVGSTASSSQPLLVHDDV
T2 sequence (P10721 with tags, fused parts or gaps DEL557-558): as the sequence (P10721 with tags, fused parts or gaps DEL557-558/D816H, form open) above, with H814D counted along it
T4 sequence (P10721 with tags, fused parts or gaps DEL557-558/V654A, form open): as the sequence (P10721 with tags, fused parts or gaps DEL557-558/D816H, form open) above, with V652A, H814D counted along it
T1 sequence (P10721 with tags, fused parts or gaps DEL557-558/T670I, form open): as the sequence (P10721 with tags, fused parts or gaps DEL557-558/D816H, form open) above, with T668I, H814D counted along it

Row | Compound | GI50 [1] [nM] | GI50 (BAF3 FL KIT EX11DEL) [nM] | GI50 [2] [nM] | GI50 [3] [nM] | ORR [4] [%] | median PFS [4] [months]
1 | CNC(=O)Nc1ncc(C#Cc2cccc(C(=O)Nc3cc(C(F)(F)F)ccn3)c2)s1 [I-44, 3-((2-(3-methylureido)thiazol-5-yl)ethynyl)-N-(4-(trifluoromethyl)pyridin-2-yl)benzamide] | < 10 | < 10 | 10 to 50 | 10 to 50 |  | 
2 | CNC(=O)Nc1ncc(C#Cc2cc(C(=O)Nc3cc(C(F)(F)F)ccn3)ccc2F)s1 [I-45, 4-fluoro-3-((2-(3-methylureido)thiazol-5-yl)ethynyl)-N-(4-(trifluoromethyl)pyridin-2-yl)benzamide] | < 10 | < 10 | 10 to 50 | 10 to 50 |  | 
3 | COCCN(C)C(=O)Nc1ncc(C#Cc2cc(C(=O)Nc3ccc(CN4CCCC4)c(C(F)(F)F)c3)ccc2C)s1 [I-46, 3-((2-(3-(2-methoxyethyl)-3-methylureido)thiazol-5-yl)ethynyl)-4-methyl-N-(4-(pyrrolidin-1-ylmethyl)-3-(trifluoromethyl)phenyl)benzamide] | 10 to 50 | 10 to 50 | 10 to 50 | 50 to 100 |  | 
4 | COCCN(C)C(=O)Nc1ncc(C#Cc2cc(C(=O)Nc3cccc(C(F)(F)F)c3OC)ccc2C)s1 [I-47, N-(2-methoxy-3-(trifluoromethyl)phenyl)-3-((2-(3-(2-methoxyethyl)-3-methylureido)thiazol-5-yl)ethynyl)-4-methylbenzamide] | 100 to 10000 | < 10 | 10 to 50 | 10 to 50 |  | 
5 | COCCN(C)C(=O)Nc1ncc(C#Cc2cc(C(=O)Nc3ccc(C#N)c(C(F)(F)F)c3)ccc2C)s1 [I-48, N-(4-cyano-3-(trifluoromethyl)phenyl)-3-((2-(3-(2-methoxyethyl)-3-methylureido)thiazol-5-yl)ethynyl)-4-methylbenzamide] | 10 to 50 | < 10 | 10 to 50 | 50 to 100 |  | 
6 | Cc1ccc(C(=O)Nc2cc(C(F)(F)F)ccn2)cc1C#Cc1cnc(NC(=O)C2CC2)s1 [I-49, 3-((2-(cyclopropanecarboxamido)thiazol-5-yl)ethynyl)-4-methyl-N-(4-(trifluoromethyl)pyridin-2-yl)benzamide] | 10 to 50 | < 10 | 10 to 50 | 10 to 50 |  | 
7 | Cc1ccc(C(=O)Nc2ccc(CN3CCN(C)CC3)c(C(F)(F)F)c2)cc1C#Cc1cnc(NC(=O)C2CC2)s1 [I-50, 3-((2-(cyclopropanecarboxamido)thiazol-5-yl)ethynyl)-4-methyl-N-(4-((4-methylpiperazin-1-yl)methyl)-3-(trifluoromethyl)phenyl)benzamide] | 10 to 50 | 10 to 50 | 10 to 50 | 100 to 10000 |  | 
8 | CC(=O)Nc1ncc(C#Cc2cc(C(=O)Nc3cc(C(F)(F)F)ccn3)ccc2C)s1 [I-51, 3-((2-acetamidothiazol-5-yl)ethynyl)-4-methyl-N-(4-(trifluoromethyl)pyridin-2-yl)benzamide] | 10 to 50 | < 10 | 10 to 50 | 10 to 50 |  | 
9 | Cc1ccc(C(=O)Nc2cc(C(F)(F)F)ccn2)cc1C#Cc1cnc(NC(=O)C(C)(C)C)s1 [I-52, 4-methyl-3-((2-pivalamidothiazol-5-yl)ethynyl)-N-(4-(trifluoromethyl)pyridin-2-yl)benzamide] | 100 to 10000 | 10 to 50 | 100 to 10000 | 100 to 10000 |  | 
10 | COCCN(C)C(=O)Nc1ncc(C#Cc2cc(NC(=O)c3cc(C(F)(F)F)ccn3)ccc2C)s1 [I-54, N-(3-((2-(3-(2-methoxyethyl)-3-methylureido)thiazol-5-yl)ethynyl)-4-methylphenyl)-4-(trifluoromethyl)picolinamide] | 10 to 50 | < 10 | 10 to 50 | 10 to 50 |  | 
11 | Cc1ccc(NC(=O)c2cccc(OC(F)(F)F)c2)cc1C#Cc1cnc(NC(=O)N(C)C)s1 [I-56, N-(3-((2-(3,3-dimethylureido)thiazol-5-yl)ethynyl)-4-methylphenyl)-3-(trifluoromethoxy)benzamide] | 10 to 50 | < 10 | 10 to 50 | 10 to 50 |  | 
12 | CNC(=O)Nc1ncc(C#Cc2cc(NC(=O)c3cc(C(F)(F)F)ccn3)ccc2C)s1 [I-57, N-(4-methyl-3-((2-(3-methylureido)thiazol-5-yl)ethynyl)phenyl)-4-(trifluoromethyl)picolinamide] | 10 to 50 | < 10 | < 10 | < 10 |  | 
13 | Cc1ccc(NC(=O)c2cc(C(F)(F)F)ccn2)cc1C#Cc1cnc(NC(=O)N(C)CCN(C)C)s1 [I-58, N-(3-((2-(3-(2-(dimethylamino)ethyl)-3-methylureido)thiazol-5-yl)ethynyl)-4-methylphenyl)-4-(trifluoromethyl)picolinamide] | 100 to 10000 | < 10 | 50 to 100 | 50 to 100 |  | 
14 | CCN(CC)CCN(C)C(=O)Nc1ncc(C#Cc2cc(NC(=O)c3cc(C(F)(F)F)ccn3)ccc2C)s1 [I-59, N-(3-((2-(3-(2-(diethylamino)ethyl)-3-methylureido)thiazol-5-yl)ethynyl)-4-methylphenyl)-4-(trifluoromethyl)picolinamide] | 100 to 10000 | 10 to 50 | 50 to 100 | 100 to 10000 |  | 
15 | Cc1ccc(NC(=O)c2cc(C(F)(F)F)ccn2)cc1C#Cc1cnc(NC(=O)N(C)CCO)s1 [I-60, N-(3-((2-(3-(2-hydroxyethyl)-3-methylureido)thiazol-5-yl)ethynyl)-4-methylphenyl)-4-(trifluoromethyl)picolinamide] | 50 to 100 | < 10 | 10 to 50 | 10 to 50 |  | 
16 | COCCN(C)C(=O)Nc1ncc(C#Cc2cccc(NC(=O)c3cc(C(F)(F)F)ccn3)c2)s1 [I-61, N-(3-((2-(3-(2-methoxyethyl)-3-methylureido)thiazol-5-yl)ethynyl)phenyl)-4-(trifluoromethyl)picolinamide] | 10 to 50 | < 10 | 10 to 50 | 10 to 50 |  | 
17 | COCCN(C)C(=O)Nc1ncc(C#Cc2cc(NC(=O)c3cc(C(F)(F)F)ccn3)ccc2F)s1 [I-62, N-(4-fluoro-3-((2-(3-(2-methoxyethyl)-3-methylureido)thiazol-5-yl)ethynyl)phenyl)-4-(trifluoromethyl)picolinamide] | < 10 | < 10 | 10 to 50 | 10 to 50 |  | 
18 | CNC(=O)c1cc(Oc2ccc(NC(=O)Nc3ccc(Cl)c(C(F)(F)F)c3)c(F)c2)ccn1 [Regorafenib] |  |  |  |  | 4.5 | 4.8
